Source: PubChem BioAssay (NCI)
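These data come from cells grown in 96-well plates and exposed to compound for 48 hours at five concentrations. GI50: concentration for 50% inhibition of growth. TGI marks complete inhibition of growth.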

Columns and labels:
Experiment in all cases: inhibition of tumour cell growth, NCI panel, 48 h
CAKI-1 renal = tested on: CAKI-1 renal
SK-MEL-28 melanoma = tested on: SK-MEL-28 melanoma
TK-10 renal = tested on: TK-10 renal
SF-268 CNS = tested on: SF-268 CNS
NCI-H460 lung = tested on: NCI-H460 lung
SK-OV-3 ovarian = tested on: SK-OV-3 ovarian
KM12 colon = tested on: KM12 colon
HCT-116 colon = tested on: HCT-116 colon
PC-3 prostate = tested on: PC-3 prostate
MDA-MB-231 breast = tested on: MDA-MB-231 breast

| Structure (SMILES) | TGI (CAKI-1 renal) | TGI (SK-MEL-28 melanoma) | TGI (TK-10 renal) | TGI (SF-268 CNS) | TGI (NCI-H460 lung) | TGI (SK-OV-3 ovarian) | TGI (KM12 colon) | TGI (HCT-116 colon) | TGI (PC-3 prostate) | GI50 (PC-3 prostate) | GI50 (MDA-MB-231 breast) | TGI (MDA-MB-231 breast) | GI50 (SK-MEL-28 melanoma) | GI50 (TK-10 renal) | GI50 (SF-268 CNS) | GI50 (NCI-H460 lung) | GI50 (SK-OV-3 ovarian) | GI50 (KM12 colon) | GI50 (HCT-116 colon) |
| --- | --- | --- | --- | --- | --- | --- | --- | --- | --- | --- | --- | --- | --- | --- | --- | --- | --- | --- | --- |
| COC(=O)/C(=N\NC(C)(C)C)C(C(=O)OC)C(=O)C(=O)Nc1cc(Cl)ccc1Cl (stereo unspecified) | > 100 µM | > 100 µM | > 100 µM | > 100 µM | > 100 µM | > 100 µM | > 100 µM | > 100 µM | – | – | – | – | – | – | – | – | – | – | – |
| C[C@@H](NC(C#N)c1ccco1)c1ccccc1 (stereo partly specified) | – | > 100 µM | > 100 µM | > 100 µM | > 100 µM | > 100 µM | > 100 µM | > 100 µM | > 100 µM | – | – | – | – | – | – | – | – | – | – |
| C[N+](C)(C)CCC(=O)CC[N+](C)(C)C | 29.2 µM | 50.1 µM | 34.6 µM | 42.9 µM | 76.9 µM | > 100 µM | 42.2 µM | 33.7 µM | – | – | – | – | – | – | – | – | – | – | – |
| O=C(/C=C/c1ccccc1)Oc1cccc2cccnc12 | 83.2 µM | > 86.3 µM | > 100 µM | 13.7 µM | 35.4 µM | > 100 µM | 32.1 µM | 10.9 µM | – | – | – | – | – | – | – | – | – | – | – |
| CO/N=C(\COc1ccc2c(c1)[nH]c1ccccc12)c1ccc(OC)cc1 | – | 69.3 µM | 66.7 µM | > 100 µM | > 100 µM | > 100 µM | > 100 µM | > 100 µM | > 100 µM | 18.3 µM | > 100 µM | > 100 µM | 11.8 µM | 13.6 µM | 56.1 µM | 21.8 µM | 34.6 µM | > 100 µM | 28.3 µM |
| CC(=O)OCc1c2ccccc2c(C)c2c1cc(F)c1ccccc12 | 98 µM | > 100 µM | > 100 µM | 85.3 µM | – | > 100 µM | > 100 µM | > 100 µM | – | – | – | – | – | – | – | – | – | – | – |
| Cn1c(=O)nc2n(-c3ccc(O)cc3)c3ccccc3nc-2c1=O | > 100 µM | > 100 µM | > 100 µM | > 100 µM | > 100 µM | > 100 µM | > 100 µM | > 100 µM | – | – | – | – | – | – | – | – | – | – | – |
| CCSCCCSCCSCC | – | > 100 µM | > 100 µM | > 100 µM | > 100 µM | > 100 µM | > 100 µM | > 100 µM | > 100 µM | – | – | > 100 µM | – | – | – | – | – | – | – |
| Cc1cc2c(C)nn(Cc3ccccc3)c2c(C(=O)O)c1C | – | > 100 µM | > 100 µM | > 100 µM | – | > 100 µM | – | > 100 µM | – | – | – | – | – | – | – | – | – | – | – |
| CC1=C(C(=O)Nc2ccccc2C)C(c2ccc(Cl)cc2)C(C(=O)Nc2ccccc2C)=C(C)N1 | > 100 µM | > 100 µM | > 100 µM | > 100 µM | > 100 µM | > 100 µM | > 100 µM | > 100 µM | – | – | – | – | – | – | – | – | – | – | – |
| O=C1CC(CC(=O)C2CCCCC2=O)C(=O)N1 (stereo unspecified) | > 100 µM | > 100 µM | > 100 µM | > 100 µM | > 100 µM | > 100 µM | > 100 µM | > 100 µM | – | – | – | – | – | – | – | – | – | – | – |
| IC[P+]1(c2ccccc2)CCCC1 | – | > 100 µM | > 100 µM | – | 76.9 µM | > 100 µM | > 100 µM | > 100 µM | – | – | – | – | – | – | – | – | – | – | – |
